Measured values published in PubChem BioAssay AID1963968 (Molecular Pharmacology Branch, DTP, NCI, 2024).

Tested on: 945468-187-T-J3-PDC spheroids with HUVEC/MSC, viability
Assay: Anticancer human tumor 945468-187-T-J3-PDC patient-derived rectal carcinoma cell line growth inhibition [PI3K]
Conditions: for IC50: curve of first compound; for viability, T/C: stronger effect = lower value
Excerpt: Combinatorial screen of targeted agents with the PI3K inhibitors inavolisib, alpelisib, duvelisib, and copanlisib in multi-cell type tumor spheroids
A high-throughput screen of multi-cell type tumor spheroids was designed to identify active combinations of targeted small molecules and PI3K pathway inhibitors. Complex spheroids include a stromal component modeled by human endothelial cells (HUVEC) and fibroblasts modeled by human mesenchymal stem cells (MSCs). The concentration ranges selected for each drug and investigational agent were based upon clinically achievable concentrations if the clinical Cmax of the agent was known.
Compounds. The drugs and investigational agents: inavolisib (NSC800729), alpelisib (NSC765974), duvelisib (NSC772469), copanlisib (NSC816437), ipatasertib (NSC767898), afuresertib (NSC778305), talazoparib (NSC767125), sapanisertib (NSC764658), selumetinib (NSC741078), tovorafenib (DAY101, NSC766906), vemurafenib (NSC761431), ravoxertinib (NSC781343), sotorasib (NSC818433), MRTX1133 (NSC 836407), abemaciclib (NSC 768073), palbociclib (NSC758247), venetoclax (NSC 766270), SY5609 (NSC837396), enzalutamide (NSC755605), and darolutamide (NSC825331), were obtained from the National Cancer Institute (NCI) Developmental Therapeutics Program Chemical Repository. The FDA-approved anticancer drug set is available from the NCI Developmental Therapeutics Program. […] The stock solutions were prepared in dimethyl sulfoxide (DMSO, Sigma-Aldrich, St. Louis, MO, cat. D2650) at 800-fold the tested concentration and stored at -70 degrees C prior to their use. All drugs and investigational agents were tested over a range starting from a high concentration at or near the clinical Cmax and decreasing in half-log increments. If the clinical Cmax for an agent had not been determined, the highest concentration tested was 10 microM.
Cell Culture. All cells were maintained in an incubator at 37 degrees C and 5% CO2 with 95% humidity. The PDC lines were cultured according to standard operating procedures established by the NCI PDMR (https://pdmr.cancer.gov/sops/default.htm). All PDCs were thawed and cultured in Matrigel-coated flasks prepared with a working solution of 1X Ham's F-12 nutrient mix, without supplementation (Invitrogen, Waltham, MA, cat. 11765054), 100 U/mL penicillin-streptomycin (Invitrogen, cat. 15140122), and 2.5% Matrigel (Corning Inc., Corning, NY, cat. 354248) for the first three passages. The 354836-022-R-J1-PDC, 475296-252-R-J1-PDC, and 997726-040-R-J2-PDC lines were cultured in 6A media, which includes advanced DMEM/F-12 (Thermo Fisher Scientific, cat. 12634028), 10 mM HEPES (Thermo Fisher Scientific, cat. 15630080), 1X GlutaMAX supplement (Thermo Fisher Scientific, cat. 35050061), 0.1 mg/mL primocin (InvivoGen, San Diego, CA, cat. ant-pm-2), 10% defined fetal bovine serum, heat inactivated (HyClone Laboratories Inc., Logan, UT, cat. SH30070.03HI), 50% L-WRN conditioned media (ATCC, cat. CRL-3276), 1.25 mM N-Acetyl-L-cysteine (Sigma-Aldrich, cat. A9165), 10 mM nicotinamide (Sigma-Aldrich, cat. N0636), 1X B-27 supplement (Thermo Fisher Scientific, cat. 17504044), 1X N-2 supplement (Thermo Fisher Scientific, cat. 17502048), and 10 microM Y-27632 dihydrochloride (Tocris Bioscience, Bristol, United Kingdom, cat. 1254). The 624824-186-R-J2-PDC line was cultured in 6C/Colon 1B media, which includes all 6A media components plus 50 ng/mL human EGF recombinant protein (Thermo Fisher Scientific, cat. PHG0311). […]

[1] = second compound 0.00316 µM, first compound 0.0316 µM
[2] = second compound 0.00316 µM, first compound 0.1 µM
[3] = second compound 0.01 µM, first compound 0.0316 µM
[4] = second compound 0.01 µM, first compound 0.1 µM
[5] = second compound 0.0316 µM, first compound 0.0316 µM
[6] = second compound 0.0316 µM, first compound 0.1 µM
[7] = second compound 0.1 µM, first compound 0.0316 µM
[8] = second compound 0.1 µM, first compound 0.1 µM
[9] = second compound 0.316 µM, first compound 0.0316 µM
[10] = second compound 0.316 µM, first compound 0.1 µM
[11] = second compound 1 µM, first compound 0.0316 µM
[12] = second compound 1 µM, first compound 0.1 µM
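Also: spheroids exposed to agents for 7 days before viability read.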
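For viability, T/C in this document: 100% = DMSO vehicle control viability.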

Compound: CC(C)n1nc(-c2ccc3oc(N)nc3c2)c2c(N)ncnc21 + CC(Nc1ccc2c(c1)OCCn1cc(N3C(=O)OCC3C(F)F)nc1-2)C(N)=O
- IC50 (second compound 0.00316 µM): > 0.1 µM
- IC50 (second compound 0.01 µM): > 0.1 µM
- IC50 (second compound 0.0316 µM): 0.0931 µM
- IC50 (second compound 0.1 µM): 0.0738 µM
- IC50 (second compound 0.316 µM): 0.0274 µM
- IC50 (second compound 1 µM): 0.00519 µM
- viability, T/C (second compound 0.00316 µM, first compound 0.000316 µM): 111%
- viability, T/C (second compound 0.00316 µM, first compound 0.001 µM): 104%
- viability, T/C (second compound 0.00316 µM, first compound 0.00316 µM): 109%
- viability, T/C (second compound 0.00316 µM, first compound 0.01 µM): 116%
- viability, T/C [1]: 118%
- viability, T/C [2]: 71%
- viability, T/C (second compound 0.01 µM, first compound 0.000316 µM): 102%
- viability, T/C (second compound 0.01 µM, first compound 0.001 µM): 105%
- viability, T/C (second compound 0.01 µM, first compound 0.00316 µM): 98.1%
- viability, T/C (second compound 0.01 µM, first compound 0.01 µM): 111%
- viability, T/C [3]: 123%
- viability, T/C [4]: 63.4%
- viability, T/C (second compound 0.0316 µM, first compound 0.000316 µM): 99.1%
- viability, T/C (second compound 0.0316 µM, first compound 0.001 µM): 94.5%
- viability, T/C (second compound 0.0316 µM, first compound 0.00316 µM): 129%
- viability, T/C (second compound 0.0316 µM, first compound 0.01 µM): 110%
- viability, T/C [5]: 114%
- viability, T/C [6]: 46%
- viability, T/C (second compound 0.1 µM, first compound 0.000316 µM): 102%
- viability, T/C (second compound 0.1 µM, first compound 0.001 µM): 107%
- viability, T/C (second compound 0.1 µM, first compound 0.00316 µM): 104%
- viability, T/C (second compound 0.1 µM, first compound 0.01 µM): 126%
- viability, T/C [7]: 87.2%
- viability, T/C [8]: 36.7%
- viability, T/C (second compound 0.316 µM, first compound 0.000316 µM): 103%
- viability, T/C (second compound 0.316 µM, first compound 0.001 µM): 104%
- viability, T/C (second compound 0.316 µM, first compound 0.00316 µM): 91%
- viability, T/C (second compound 0.316 µM, first compound 0.01 µM): 77.8%
- viability, T/C [9]: 45.2%
- viability, T/C [10]: 24.9%
- viability, T/C (second compound 1 µM, first compound 0.000316 µM): 65.7%
- viability, T/C (second compound 1 µM, first compound 0.001 µM): 64.9%
- viability, T/C (second compound 1 µM, first compound 0.00316 µM): 60.3%
- viability, T/C (second compound 1 µM, first compound 0.01 µM): 36.3%
- viability, T/C [11]: 34.9%
- viability, T/C [12]: 29.8%

Compound: CCCS(=O)(=O)Nc1ccc(F)c(C(=O)c2c[nH]c3ncc(-c4ccc(Cl)cc4)cc23)c1F + CC(Nc1ccc2c(c1)OCCn1cc(N3C(=O)OCC3C(F)F)nc1-2)C(N)=O
- IC50 (second compound 0.00316 µM): 6.24 µM
- IC50 (second compound 0.01 µM): 6.4 µM
- IC50 (second compound 0.0316 µM): 6.62 µM
- IC50 (second compound 0.1 µM): 7.15 µM
- IC50 (second compound 0.316 µM): 6.37 µM
- IC50 (second compound 1 µM): 3.27 µM
- viability, T/C [1]: 105%
- viability, T/C [2]: 96.9%
- viability, T/C (second compound 0.00316 µM, first compound 0.316 µM): 93%
- viability, T/C (second compound 0.00316 µM, first compound 1 µM): 104%
- viability, T/C (second compound 0.00316 µM, first compound 3.16 µM): 97.1%
- viability, T/C (second compound 0.00316 µM, first compound 10 µM): 17.3%
- viability, T/C [3]: 105%
- viability, T/C [4]: 88.7%
- viability, T/C (second compound 0.01 µM, first compound 0.316 µM): 104%
- viability, T/C (second compound 0.01 µM, first compound 1 µM): 102%
- viability, T/C (second compound 0.01 µM, first compound 3.16 µM): 110%
- viability, T/C (second compound 0.01 µM, first compound 10 µM): 17.3%
- viability, T/C [5]: 98.5%
- viability, T/C [6]: 108%
- viability, T/C (second compound 0.0316 µM, first compound 0.316 µM): 97.7%
- viability, T/C (second compound 0.0316 µM, first compound 1 µM): 94.3%
- viability, T/C (second compound 0.0316 µM, first compound 3.16 µM): 100%
- viability, T/C (second compound 0.0316 µM, first compound 10 µM): 22.2%
- viability, T/C [7]: 101%
- viability, T/C [8]: 102%
- viability, T/C (second compound 0.1 µM, first compound 0.316 µM): 104%
- viability, T/C (second compound 0.1 µM, first compound 1 µM): 99.7%
- viability, T/C (second compound 0.1 µM, first compound 3.16 µM): 121%
- viability, T/C (second compound 0.1 µM, first compound 10 µM): 27%
- viability, T/C [9]: 98.7%
- viability, T/C [10]: 108%
- viability, T/C (second compound 0.316 µM, first compound 0.316 µM): 98.5%
- viability, T/C (second compound 0.316 µM, first compound 1 µM): 114%
- viability, T/C (second compound 0.316 µM, first compound 3.16 µM): 97.6%
- viability, T/C (second compound 0.316 µM, first compound 10 µM): 18.9%
- viability, T/C [11]: 66%
- viability, T/C [12]: 66.6%
- viability, T/C (second compound 1 µM, first compound 0.316 µM): 74.9%
- viability, T/C (second compound 1 µM, first compound 1 µM): 69.4%
- viability, T/C (second compound 1 µM, first compound 3.16 µM): 51.1%
- viability, T/C (second compound 1 µM, first compound 10 µM): 13.9%
